Experimental data published in ChEMBL document CHEMBL2029316, “Linker-based hemisuccinate derivatives of artemisinin: synthesis and antimalarial assessment against multidrug-resistant Plasmodium yoelii nigeriensis in mice” (J Med Chem, 2012).
Active and inactive are the calls of the source. No cut-off for these calls is given here.

System: Plasmodium yoelii nigeriensis
Experiment: Antimalarial activity against chloroquine-, mefloquine-, halofantrine-resistant Plasmodium yoelii nigeriensis blood stream schizonts infected in Swiss mouse assessed as suppression of parasitemia at 48 mg/kg, im administered once daily for 4 days relative to control
Format: functional
Conditions: route intramuscular
Work on `C[C@H]1[C@@H](OCCCCCCCCCCCCOC(=O)CCC(=O)O)O[C@@H]2O[C@@]3(C)CC[C@H]4[C@H](C)CC[C@@H]1[C@@]24OO3` yielded an Activity of 100%. With `C[C@H]1[C@@H](OCCCCCO)O[C@@H]2O[C@@]3(C)CC[C@H]4[C@H](C)CC[C@@H]1[C@@]24OO3` the Activity was 100%. `C[C@H]1[C@@H](OCCOCCOC(=O)CCC(=O)O)O[C@@H]2O[C@@]3(C)CC[C@H]4[C@H](C)CC[C@@H]1[C@@]24OO3` gave an Activity of 100%. With `C[C@H]1[C@H](OC(=O)CCC(=O)O)O[C@@H]2O[C@@]3(C)CC[C@H]4[C@H](C)CC[C@@H]1[C@@]24OO3` [ARTESUNATE] the Activity was 100%. With `C[C@H]1[C@@H](OCCCCCCCCO)O[C@@H]2O[C@@]3(C)CC[C@H]4[C@H](C)CC[C@@H]1[C@@]24OO3` the Activity was 100%. For `C[C@H]1[C@@H](OCCCCCCCCCCOC(=O)CCC(=O)O)O[C@@H]2O[C@@]3(C)CC[C@H]4[C@H](C)CC[C@@H]1[C@@]24OO3`, the Activity was 100%.

System: Plasmodium yoelii nigeriensis
Experiment: Antimalarial activity against chloroquine-, mefloquine-, halofantrine-resistant Plasmodium yoelii nigeriensis blood stream schizonts infected in Swiss mouse assessed as suppression of parasitemia at 24 mg/kg, im administered once daily for 4 days relative to control
Format: functional
Conditions: route intramuscular
Work on `C[C@H]1[C@@H](OCCCCCCCCCCCCOC(=O)CCC(=O)O)O[C@@H]2O[C@@]3(C)CC[C@H]4[C@H](C)CC[C@@H]1[C@@]24OO3` yielded an Activity of 100%. `C[C@H]1[C@@H](OCCCCCO)O[C@@H]2O[C@@]3(C)CC[C@H]4[C@H](C)CC[C@@H]1[C@@]24OO3` showed an Activity of 100%. In the case of `C[C@H]1[C@H](OC(=O)CCC(=O)O)O[C@@H]2O[C@@]3(C)CC[C@H]4[C@H](C)CC[C@@H]1[C@@]24OO3` [ARTESUNATE], the Activity is reported as 100%. `C[C@H]1[C@@H](OCCCCCCCCO)O[C@@H]2O[C@@]3(C)CC[C@H]4[C@H](C)CC[C@@H]1[C@@]24OO3` gave an Activity of 100%. With `C[C@H]1[C@@H](OCCCCCCCCCCOC(=O)CCC(=O)O)O[C@@H]2O[C@@]3(C)CC[C@H]4[C@H](C)CC[C@@H]1[C@@]24OO3` the Activity was 100%.

System: Plasmodium yoelii nigeriensis
Experiment: Antimalarial activity against chloroquine-, mefloquine-, halofantrine-resistant Plasmodium yoelii nigeriensis blood stream schizonts infected in Swiss mouse assessed as suppression of parasitemia at 12 mg/kg, im administered once daily for 4 days relative to control
Format: functional
Conditions: route intramuscular
`C[C@H]1[C@@H](OCCCCCCCCCCCCOC(=O)CCC(=O)O)O[C@@H]2O[C@@]3(C)CC[C@H]4[C@H](C)CC[C@@H]1[C@@]24OO3` showed an Activity of 71.27%. With `C[C@H]1[C@@H](OCCCCCO)O[C@@H]2O[C@@]3(C)CC[C@H]4[C@H](C)CC[C@@H]1[C@@]24OO3` the Activity was 100%. Work on `C[C@H]1[C@H](OC(=O)CCC(=O)O)O[C@@H]2O[C@@]3(C)CC[C@H]4[C@H](C)CC[C@@H]1[C@@]24OO3` [ARTESUNATE] yielded an Activity of 96.36%. Compound `C[C@H]1[C@@H](OCCCCCCCCO)O[C@@H]2O[C@@]3(C)CC[C@H]4[C@H](C)CC[C@@H]1[C@@]24OO3` has an Activity of 100%. With `C[C@H]1[C@@H](OCCCCCCCCCCOC(=O)CCC(=O)O)O[C@@H]2O[C@@]3(C)CC[C@H]4[C@H](C)CC[C@@H]1[C@@]24OO3` the Activity was 98.18%.

System: Plasmodium yoelii nigeriensis
Experiment: Antimalarial activity against chloroquine-, mefloquine-, halofantrine-resistant Plasmodium yoelii nigeriensis blood stream schizonts infected in Swiss mouse assessed as suppression of parasitemia at 6 mg/kg, im administered once daily for 4 days relative to control
Format: functional
Conditions: route intramuscular
`C[C@H]1[C@@H](OCCCCCCCCCCCCOC(=O)CCC(=O)O)O[C@@H]2O[C@@]3(C)CC[C@H]4[C@H](C)CC[C@@H]1[C@@]24OO3` showed an Activity of 57.09%. `C[C@H]1[C@@H](OCCCCCO)O[C@@H]2O[C@@]3(C)CC[C@H]4[C@H](C)CC[C@@H]1[C@@]24OO3` gave an Activity of 100%. `C[C@H]1[C@@H](OCCCCCCCCO)O[C@@H]2O[C@@]3(C)CC[C@H]4[C@H](C)CC[C@@H]1[C@@]24OO3` gave an Activity of 100%.

System: Plasmodium yoelii nigeriensis
Experiment: Antimalarial activity against chloroquine-, mefloquine-, halofantrine-resistant Plasmodium yoelii nigeriensis blood stream schizonts infected in Swiss mouse assessed as disease cured mouse at 48 mg/kg, im administered once daily for 4 days measured on day 28
Format: functional, organism-based
Parameters: dose 48 mg/kg
Conditions: not given
With `C[C@H]1[C@@H](OCCCCCCCCCCCCOC(=O)CCC(=O)O)O[C@@H]2O[C@@]3(C)CC[C@H]4[C@H](C)CC[C@@H]1[C@@]24OO3` the Activity was “Active”. For `C[C@H]1[C@@H](OCCCCCO)O[C@@H]2O[C@@]3(C)CC[C@H]4[C@H](C)CC[C@@H]1[C@@]24OO3`, the Activity was “Active”. In the case of `C[C@H]1[C@H](OC(=O)CCC(=O)O)O[C@@H]2O[C@@]3(C)CC[C@H]4[C@H](C)CC[C@@H]1[C@@]24OO3` [ARTESUNATE], the Activity is reported as “Active”. For `C[C@H]1[C@@H](OCCCCCCCCO)O[C@@H]2O[C@@]3(C)CC[C@H]4[C@H](C)CC[C@@H]1[C@@]24OO3`, the Activity was “Active”. With `C[C@H]1[C@@H](OCCCCCCCCCCOC(=O)CCC(=O)O)O[C@@H]2O[C@@]3(C)CC[C@H]4[C@H](C)CC[C@@H]1[C@@]24OO3` the Activity was “Active”.

System: Plasmodium yoelii nigeriensis
Experiment: Antimalarial activity against chloroquine-, mefloquine-, halofantrine-resistant Plasmodium yoelii nigeriensis blood stream schizonts infected in Swiss mouse assessed as disease cured mouse at 24 mg/kg, im administered once daily for 4 days measured on day 28
Format: functional, organism-based
Parameters: dose 24 mg/kg
Conditions: not given
For `C[C@H]1[C@@H](OCCCCCCCCCCCCOC(=O)CCC(=O)O)O[C@@H]2O[C@@]3(C)CC[C@H]4[C@H](C)CC[C@@H]1[C@@]24OO3`, the Activity was “Active”. With `C[C@H]1[C@@H](OCCCCCO)O[C@@H]2O[C@@]3(C)CC[C@H]4[C@H](C)CC[C@@H]1[C@@]24OO3` the Activity was “Active”. For `C[C@H]1[C@H](OC(=O)CCC(=O)O)O[C@@H]2O[C@@]3(C)CC[C@H]4[C@H](C)CC[C@@H]1[C@@]24OO3` [ARTESUNATE], the Activity was “inactive”. With `C[C@H]1[C@@H](OCCCCCCCCO)O[C@@H]2O[C@@]3(C)CC[C@H]4[C@H](C)CC[C@@H]1[C@@]24OO3` the Activity was “Active”.

System: Plasmodium yoelii nigeriensis
Experiment: Antimalarial activity against chloroquine-, mefloquine-, halofantrine-resistant Plasmodium yoelii nigeriensis blood stream schizonts infected in Swiss mouse assessed as disease cured mouse at 12 mg/kg, im administered once daily for 4 days measured on day 28
Format: functional, organism-based
Parameters: dose 12 mg/kg
Conditions: not given
With `C[C@H]1[C@@H](OCCCCCCCCCCCCOC(=O)CCC(=O)O)O[C@@H]2O[C@@]3(C)CC[C@H]4[C@H](C)CC[C@@H]1[C@@]24OO3` the Activity was “inactive”. With `C[C@H]1[C@@H](OCCCCCO)O[C@@H]2O[C@@]3(C)CC[C@H]4[C@H](C)CC[C@@H]1[C@@]24OO3` the Activity was “Active”. In the case of `C[C@H]1[C@H](OC(=O)CCC(=O)O)O[C@@H]2O[C@@]3(C)CC[C@H]4[C@H](C)CC[C@@H]1[C@@]24OO3` [ARTESUNATE], the Activity is reported as “inactive”. With `C[C@H]1[C@@H](OCCCCCCCCO)O[C@@H]2O[C@@]3(C)CC[C@H]4[C@H](C)CC[C@@H]1[C@@]24OO3` the Activity was “Active”. In the case of `C[C@H]1[C@@H](OCCCCCCCCCCOC(=O)CCC(=O)O)O[C@@H]2O[C@@]3(C)CC[C@H]4[C@H](C)CC[C@@H]1[C@@]24OO3`, the Activity is reported as “inactive”.

System: Plasmodium yoelii nigeriensis
Experiment: Antimalarial activity against chloroquine-, mefloquine-, halofantrine-resistant Plasmodium yoelii nigeriensis blood stream schizonts infected in Swiss mouse assessed as disease cured mouse at 6 mg/kg, im administered once daily for 4 days measured on day 28
Format: functional, organism-based
Parameters: dose 6 mg/kg
Conditions: not given
For `C[C@H]1[C@@H](OCCCCCCCCCCCCOC(=O)CCC(=O)O)O[C@@H]2O[C@@]3(C)CC[C@H]4[C@H](C)CC[C@@H]1[C@@]24OO3`, the Activity was “inactive”.

System: Plasmodium yoelii nigeriensis
Experiment: Antimalarial activity against chloroquine-, mefloquine-, halofantrine-resistant Plasmodium yoelii nigeriensis infected in Swiss mouse assessed as protection from infection at 3 to 48 mg/kg, im administered once daily for 4 days measured on day 28 relative to artesunic acid
Format: functional
Conditions: dose mg/kg 3-48; route intramuscular
With `C[C@H]1[C@@H](OCCCCCCCCCCCCOC(=O)CCC(=O)O)O[C@@H]2O[C@@]3(C)CC[C@H]4[C@H](C)CC[C@@H]1[C@@]24OO3` the “fold change (FC)” value was 2.

System: not listed separately
Experiment: Drug degradation in aqueous NaHCO3 under ambient temperature within 48 hrs
Format: physicochemical
Conditions: buffer
For `C[C@H]1[C@H](OC(=O)CCC(=O)O)O[C@@H]2O[C@@]3(C)CC[C@H]4[C@H](C)CC[C@@H]1[C@@]24OO3` [ARTESUNATE], the Drug degradation was “Active”. With `C[C@H]1[C@@H](OCCCCCCCCCCOC(=O)CCC(=O)O)O[C@@H]2O[C@@]3(C)CC[C@H]4[C@H](C)CC[C@@H]1[C@@]24OO3` the Drug degradation was “Not Active”.

System: not listed separately
Experiment: Drug degradation in aqueous Na2CO3 under ambient temperature within 48 hrs
Format: physicochemical
Conditions: buffer
With `C[C@H]1[C@H](OC(=O)CCC(=O)O)O[C@@H]2O[C@@]3(C)CC[C@H]4[C@H](C)CC[C@@H]1[C@@]24OO3` [ARTESUNATE] the Drug degradation was “Active”. For `C[C@H]1[C@@H](OCCCCCCCCCCOC(=O)CCC(=O)O)O[C@@H]2O[C@@]3(C)CC[C@H]4[C@H](C)CC[C@@H]1[C@@]24OO3`, the Drug degradation was “Not Active”.

System: not listed separately
Experiment: Lipophilicity, log P of the compound
Format: physicochemical
Conditions: octanol/water
With `C[C@H]1[C@@H](OCCCCCCCCCCCCOC(=O)CCC(=O)O)O[C@@H]2O[C@@]3(C)CC[C@H]4[C@H](C)CC[C@@H]1[C@@]24OO3` the logP was 6.78. `C[C@H]1[C@@H](OCCCCCO)O[C@@H]2O[C@@]3(C)CC[C@H]4[C@H](C)CC[C@@H]1[C@@]24OO3` showed a logP of 3.97. With `C[C@H]1[C@@H](OCCOCCOC(=O)CCC(=O)O)O[C@@H]2O[C@@]3(C)CC[C@H]4[C@H](C)CC[C@@H]1[C@@]24OO3` the logP was 2.73. `C[C@H]1[C@@H](OCCCCCCCCO)O[C@@H]2O[C@@]3(C)CC[C@H]4[C@H](C)CC[C@@H]1[C@@]24OO3` showed a logP of 5.22. With `C[C@H]1[C@@H](OCCCCCCCCCCOC(=O)CCC(=O)O)O[C@@H]2O[C@@]3(C)CC[C@H]4[C@H](C)CC[C@@H]1[C@@]24OO3` the logP was 5.95.
